Test results published in patent publication US6472348B1, “Pyridone derivatives and herbicides” (Kumiai Chemical Industry Co., Ltd., priority 1996, dated 2002).

Tests used:
[1] = tested on: common lambsquarters (Ch); experiment: Test Example 9: crop plant selectivity by upland field foliage treatment (wheat), herbicidal effects; type: in vivo; set-up: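 grade of growth control; 5 = at least 90%; 4 = 70 to 90%; 3 = 50 to 70%; 2 = 30 to 50%; 1 = 10 to 30%; 0 = under 10%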; conditions: dose 1.6 g ai/10a, 14th day after treatment
Outline: (§1)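 Seeds of wheat, pale smartweed, slender amaranth, common lambsquarters and China jute are sown in sand and grown 2 weeks under glass. Foliage is then treated, culture resumes in the greenhouse, and damage is graded on the 14th day.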

[2] = tested on: China jute (Ab); experiment: as above; type: in vivo; set-up: scale not given here; conditions: dose 1.6 g ai/10a, 14th day after treatment
Outline: as §1

[3] = tested on: pale smartweed (Po); experiment: as above; type: in vivo; set-up: scale not given here; conditions: dose 1.6 g ai/10a, 14th day after treatment
Outline: as §1

[4] = tested on: slender amaranth (Am); experiment: as above; type: in vivo; set-up: scale not given here; conditions: dose 1.6 g ai/10a, 14th day after treatment
Outline: as §1

[5] = tested on: common lambsquarters (Ch); experiment: Test Example 5: crop plant selectivity by upland field soil treatment (wheat), herbicidal effects; type: in vivo; set-up: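 grade of growth control; 5 = at least 90%; 4 = 70 to 90%; 3 = 50 to 70%; 2 = 30 to 50%; 1 = 10 to 30%; 0 = under 10%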; conditions: dose 6.3 g ai/10a, 21st day after application
Outline: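 Pots of sand sown with wheat and weeds (incl. Digitaria ciliaris, green foxtail, slender amaranth), seeds covered with soil, soil-applied treatment. Grown in greenhouse; herbicidal effect and crop phytotoxicity scored visually on day 21 after application against a rating scale.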

[6] = tested on: corn (Ze); experiment: Test Example 7: crop plant selectivity by upland field soil treatment (corn), phytotoxicity; type: in vivo; set-up: scale not given here; conditions: 21st day after application
Outline: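 Corn and weeds (green foxtail, pale smartweed, slender amaranth, common lambsquarters, China jute) sown in sand-filled pots, covered with soil and treated by soil application. Grown in a greenhouse; herbicidal effect and crop phytotoxicity scored on day 21 after application using a fixed rating scale.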

[7] = tested on: barnyardgrass (Ec); experiment: Test Example 3: herbicidal effects by upland field foliage treatment; type: in vivo; set-up: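 grade of growth control; 5 = at least 90%; 4 = 70 to 90%; 3 = 50 to 70%; 2 = 30 to 50%; 1 = 10 to 30%; 0 = under 10%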; conditions: 100 g active ingredient per 10 ares, evaluated 14th day after treatment
Outline: (§2)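 Test plants had been raised from seed for 2 weeks in a greenhouse, in soil-covered sand pots of 120 cm^2, and were returned there after spraying.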

[8] = tested on: rice flatsedge (Ci); experiment: as above; type: in vivo; set-up: scale not given here; conditions: 100 g active ingredient per 10 ares, evaluated 14th day after treatment
Outline: as §2

[9] = tested on: common lambsquarters (Ch); experiment: as above; type: in vivo; set-up: scale not given here; conditions: 100 g active ingredient per 10 ares, evaluated 14th day after treatment
Outline: as §2

[10] = tested on: Diaitaria ciliaris (Di); experiment: as above; type: in vivo; set-up: scale not given here; conditions: 100 g active ingredient per 10 ares, evaluated 14th day after treatment
Outline: as §2

[11] = tested on: pale smartweed (Po); experiment: as above; type: in vivo; set-up: scale not given here; conditions: 100 g active ingredient per 10 ares, evaluated 14th day after treatment
Outline: as §2

[12] = tested on: wheat (Tr); experiment: Test Example 9: crop plant selectivity by upland field foliage treatment (wheat), phytotoxicity; conditions: dose 1.6 g ai/10a, 14th day after treatment;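 further: grade of crop injury; 5 = at least 90%; 4 = 70 to 90%; 3 = 50 to 70%; 2 = 30 to 50%; 1 = 10 to 30%; 0 = under 10%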
Outline: as §1

Structure (SMILES)	Herbicidal effects Ch [1]	Herbicidal effects Ab [2]	Herbicidal effects Po [3]	Herbicidal effects Am [4]	Herbicidal effects Ch [5]	Phytotoxicity Ze ([6]; dose 6.3 g ai/10a)	Herbicidal effects Ec [7]	Herbicidal effects Ci [8]	Herbicidal effects Ch [9]	Herbicidal effects Di [10]	Herbicidal effects Po [11]	Phytotoxicity Tr [12]	Phytotoxicity Ze ([6]; dose 1.6 g ai/10a)
CCCC(=O)c1cc(-c2ccc(C(F)(F)F)n(C)c2=O)c(F)cc1Cl [Compound No. 1-194, 3-[4-chloro-2-fluoro-5-(1-oxobutyl)phenyl]-1-methyl-6-trifluoromethyl-2(1H)-pyridone]	5	5	5	5	5	0	5	5	5	5	5	1	
Cn1c(C(F)(F)F)ccc(-c2c(F)cc(Cl)c3oc(CO)cc23)c1=O [Compound No. 4-5, 3-(7-chloro-5-fluoro-2-hydroxymethylbenzofuran-4-yl)-1-methyl-6-trifluoromethyl-2-(1H)-pyridone]	5	5	5	5	5	0	5	5	5	5	5	2	
Cn1c(C(F)(F)F)ccc(-c2c(F)cc(Cl)c3occc23)c1=O [Compound No. 4-28, 3-(7-chloro-5-fluorobenzofuran-4-yl)-1-methyl-6-trifluoromethyl-2-(1H)-pyridone]	5	5	5	5	5		4	5	5	5	5	2	1
